≈ marks a conversion by molar mass, not a printed value.
Columns and labels:
[1] = biological target: T1, Glutaminase kidney isoform, mitochondrial (Homo sapiens, UniProt O94925); assay: Inhibition of human GLS1 expressed in Escherichia coli strain BL21 (DE3)pLysS pre-incubated for 10 mins before glutamine addition and measured after 60 mins by bovine liver glutamate dehydrogenase based coupled enzyme assay
T1 sequence (O94925 whole entry): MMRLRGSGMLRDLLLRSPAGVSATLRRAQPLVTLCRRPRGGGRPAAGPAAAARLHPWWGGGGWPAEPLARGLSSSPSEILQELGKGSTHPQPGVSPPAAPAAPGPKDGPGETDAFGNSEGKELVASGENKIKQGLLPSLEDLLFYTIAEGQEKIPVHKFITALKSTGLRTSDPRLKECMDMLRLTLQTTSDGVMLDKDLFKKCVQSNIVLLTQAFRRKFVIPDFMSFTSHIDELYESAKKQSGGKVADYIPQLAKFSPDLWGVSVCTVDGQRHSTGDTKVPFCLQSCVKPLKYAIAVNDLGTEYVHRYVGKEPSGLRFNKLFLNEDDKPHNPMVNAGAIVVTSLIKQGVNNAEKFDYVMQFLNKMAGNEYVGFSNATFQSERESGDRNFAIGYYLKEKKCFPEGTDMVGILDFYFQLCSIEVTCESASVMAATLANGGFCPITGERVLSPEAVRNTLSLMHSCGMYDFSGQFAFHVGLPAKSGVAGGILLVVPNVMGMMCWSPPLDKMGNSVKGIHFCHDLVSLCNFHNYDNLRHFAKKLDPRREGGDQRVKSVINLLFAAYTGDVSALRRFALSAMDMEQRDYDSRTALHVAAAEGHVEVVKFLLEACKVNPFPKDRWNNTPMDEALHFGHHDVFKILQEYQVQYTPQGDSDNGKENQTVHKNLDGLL

[2] = biological target: T1, Glutaminase kidney isoform, mitochondrial; assay: Inhibition of N-[2-[(3',6'-dihydroxy-1-oxo-spiro[isobenzofuran-3,9'-xanthene]-5-yl)carbamothioylamino]ethyl]-N'-[6-[4-[5-[[2-(2-pyridyl)acetyl]amino]-1,3,4-thiadiazol-2-yl]butyl]pyridazin-3-yl]pentanediamide binding to human GLS1 expressed in Escherichia coli strain BL21 (DE3)pLysS by fluorescence polarization binding assay
MDA-MB-436 = assay: Antiproliferative activity against human MDA-MB-436 cells assessed as reduction in cell viability incubated for 72 hrs by MTT assay; format: functional, cell-based; details: MDA-MB-436, 72 h
HCT-116 = assay: Antiproliferative activity against human HCT116 cells assessed as reduction in cell viability incubated for 72 hrs by MTT assay; format: functional, cell-based; details: HCT-116, 72 h
[3] = biological target: T2, Glutaminase kidney isoform, mitochondrial (Homo sapiens) (UniProt O94925)
T2 sequence (whole entry): T1 sequence (O94925 whole entry)
Description: Binding affinity to human GLS1 expressed in Escherichia coli strain BL21 (DE3)pLysS assessed as change in melting temperature by SYPRO orange dye based protein thermal shift assay

[4] = Ratio of intrinsic aqueous solubility of the test compound to CB839 incubated for 72 hrs by LC-MS based shake-flask method; format: physicochemical; details: buffer
[5] = biological target: T1, Glutaminase kidney isoform, mitochondrial; assay: (§1) Binding affinity to human GLS1 expressed in Escherichia coli strain BL21 (DE3)pLysS by SPR assay
[6] = Intrinsic aqueous solubility incubated for 72 hrs by LC-MS based shake-flask method; format: physicochemical; details: buffer
[7] = Distribution coefficient, logD of the compound incubated for 72 hrs by LC-MS based shake-flask method; format: physicochemical; details: octanol/water
[8] = biological target: T1, Glutaminase kidney isoform, mitochondrial; assay: Binding affinity to human GLS1 expressed in Escherichia coli strain BL21 (DE3)pLysS by fluorescence polarization binding assay
[9] = biological target: T2, Glutaminase kidney isoform, mitochondrial (Homo sapiens); assay: Binding affinity to 1 uM human GLS1 expressed in Escherichia coli strain BL21 (DE3)pLysS by fluorescence polarization binding assay relative to control
[10] = biological target: Serum albumin (Bos taurus) (UniProt P02769); assay: Binding affinity to BSA by fluorescence polarization binding assay relative to control; details: bovine
[11] = biological target: T2, Glutaminase kidney isoform, mitochondrial (Homo sapiens); assay: as §1

Chain of Serum albumin (Bos taurus) (P02769 whole entry, looked up, canonical isoform): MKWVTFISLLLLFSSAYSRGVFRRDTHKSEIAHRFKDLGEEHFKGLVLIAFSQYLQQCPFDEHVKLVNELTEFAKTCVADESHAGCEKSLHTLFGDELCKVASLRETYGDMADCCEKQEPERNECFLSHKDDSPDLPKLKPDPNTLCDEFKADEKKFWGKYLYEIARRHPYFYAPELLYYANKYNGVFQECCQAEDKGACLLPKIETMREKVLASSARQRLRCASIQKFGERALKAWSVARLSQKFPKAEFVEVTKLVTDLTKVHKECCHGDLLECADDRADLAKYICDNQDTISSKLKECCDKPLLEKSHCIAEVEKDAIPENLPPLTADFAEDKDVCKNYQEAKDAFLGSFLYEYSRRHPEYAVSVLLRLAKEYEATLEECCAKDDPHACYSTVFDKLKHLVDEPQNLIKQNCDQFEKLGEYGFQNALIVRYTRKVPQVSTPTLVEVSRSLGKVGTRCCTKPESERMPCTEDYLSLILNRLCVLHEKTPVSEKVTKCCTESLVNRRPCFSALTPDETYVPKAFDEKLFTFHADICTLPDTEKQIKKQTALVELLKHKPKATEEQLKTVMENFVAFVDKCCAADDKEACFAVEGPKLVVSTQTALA

Question: With `O=C(CCc1cn(Cc2ccc([N+](=O)[O-])cc2)nn1)Nc1nnc(CCCCc2nnc(NC(=O)Cc3ccccc3)s2)s1` as the compound, how does the IC50 [1] read?
Answer: Its IC50 is 2500 nM.

Question: What about the IC50 [2] of the same compound?
Answer: Its IC50 is 2750 nM.

Question: And the IC50 (MDA-MB-436)?
Answer: The IC50 was 10700 nM.

Question: What about the IC50 (HCT-116) of the same compound?
Answer: Its IC50 is 1050 nM.

Question: For `O=C(CCc1cn(Cc2ccccc2)nn1)Nc1nnc(CCCCc2nnc(NC(=O)Cc3ccccc3)s2)s1`, which IC50 [1] is on record?
Answer: The IC50 was 900 nM.

Question: And the IC50 [2]?
Answer: Its IC50 is 920 nM.

Question: And the IC50 (MDA-MB-436)?
Answer: The IC50 was 1160 nM.

Question: What about the IC50 (HCT-116) of the same compound?
Answer: The IC50 was 4780 nM.

Question: With `Cc1ccc(Cn2cc(CCC(=O)Nc3ccc(CCCCc4nnc(NC(=O)Cc5ccccn5)s4)nn3)nn2)c(C)c1` as the compound, how does the IC50 [1] read?
Answer: The IC50 was 110 nM.

Question: And the IC50 [2]?
Answer: The IC50 was 210 nM.

Question: What about the IC50 (MDA-MB-436) of the same compound?
Answer: Its IC50 is 200 nM.

Question: What about the IC50 (HCT-116) of the same compound?
Answer: Its IC50 is 720 nM.

Question: With `COc1ccc(Cn2cc(CCC(=O)Nc3nnc(CCCCc4nnc(NC(=O)Cc5ccccc5)s4)s3)nn2)cc1` as the compound, how does the IC50 [1] read?
Answer: The IC50 was 510 nM.

Question: And the IC50 [2]?
Answer: The IC50 was 760 nM.

Question: And the IC50 (MDA-MB-436)?
Answer: Its IC50 is 5490 nM.

Question: And the IC50 (HCT-116)?
Answer: Its IC50 is 560 nM.

Question: Which IC50 [1] does the source give for `N#Cc1ccc(Cn2cc(CCC(=O)Nc3nnc(CCCCc4nnc(NC(=O)Cc5ccccc5)s4)s3)nn2)cc1` here?
Answer: The IC50 was 840 nM.

Question: What about the IC50 [2] of the same compound?
Answer: Its IC50 is 930 nM.

Question: And the IC50 (MDA-MB-436)?
Answer: Its IC50 is 2950 nM.

Question: And the IC50 (HCT-116)?
Answer: The IC50 was 5140 nM.

Question: What does the source list for `COc1ccc(Cn2cc(CCC(=O)Nc3ccc(CCCCc4nnc(NC(=O)Cc5ccccn5)s4)nn3)nn2)cc1OC`?
Answer: IC50 [1]: 330 nM; IC50 [2]: 400 nM; IC50 (MDA-MB-436): 400 nM; IC50 (HCT-116): 380 nM

Question: With `Cc1ccc(Cn2cc(CCC(=O)Nc3ccc(CCCCc4nnc(NC(=O)Cc5ccccn5)s4)nn3)nn2)cc1` as the compound, how does the IC50 [1] read?
Answer: Its IC50 is 27 nM.

Question: What about the IC50 [2] of the same compound?
Answer: Its IC50 is 41 nM.

Question: And the ΔTm [3]?
Answer: The ΔTm was 16.5 °C.

Question: What about the IC50 (MDA-MB-436) of the same compound?
Answer: Its IC50 is 180 nM.

Question: And the IC50 (HCT-116)?
Answer: The IC50 was 150 nM.

Question: What about the Ratio [4] of the same compound?
Answer: Its Ratio is 9.

Question: And the Kd [5]?
Answer: Its Kd is 68 nM.

Question: And the solubility thermodynamic at 72 h [6]?
Answer: The solubility thermodynamic at 72 h was 20.8 µg/mL (≈ 34.9 µM).

Question: And the logD at 72 h [7]?
Answer: The logD at 72 h was 1.29.

Question: Which results are given for `O=C(Cc1ccccc1)Nc1nnc(CCSCCc2nnc(NC(=O)Cc3ccccc3)s2)s1`?
Answer: IC50 (MDA-MB-436): 2400 nM; IC50 (HCT-116): 1020 nM

Question: Which results are given for `Cc1ccc(Cn2cc(CCC(=O)Nc3nnc(CCCCc4nnc(NC(=O)Cc5ccccc5)s4)s3)nn2)c(C)c1`?
Answer: IC50 [1]: 280 nM; IC50 [2]: 500 nM; ΔTm [3]: 7.7 °C; IC50 (MDA-MB-436): 430 nM; IC50 (HCT-116): 1010 nM; Kd [5]: 350 nM

Question: With `O=C(CCCC(=O)Nc1ccc(CCCCc2nnc(NC(=O)Cc3ccccn3)s2)nn1)NCCNC(=S)Nc1ccc2c(c1)C1(OC2=O)c2ccc(O)cc2Oc2cc(O)ccc21` as the compound, how does the Kd [8] read?
Answer: Its Kd is 450 nM.

Question: What about the fold change (FC) [9] of the same compound?
Answer: The fold change (FC) was 2.

Question: What about the Activity [10] of the same compound?
Answer: Its Activity is “Not Active”.

Question: And the Kd [5]?
Answer: The Kd was 610 nM.

Question: And the Activity [11]?
Answer: The Activity was “Dose-dependent effect”.

Question: With `O=C(Cc1cccc(OC(F)(F)F)c1)Nc1ccc(CCCCc2nnc(NC(=O)Cc3ccccn3)s2)nn1` as the compound, how does the IC50 (MDA-MB-436) read?
Answer: Its IC50 is 520 nM.

Question: And the IC50 (HCT-116)?
Answer: The IC50 was 60 nM.

Question: What about the logD at 72 h [7] of the same compound?
Answer: Its logD at 72 h is 1.9.

Question: What does the source list for `O=C(CCc1cn(Cc2ccc(OC(F)(F)F)cc2)nn1)Nc1ccc(CCCCc2nnc(NC(=O)Cc3ccccn3)s2)nn1`?
Answer: IC50 [1]: 300 nM; IC50 [2]: 390 nM; IC50 (MDA-MB-436): 310 nM; IC50 (HCT-116): 250 nM

Question: Which results are given for `O=C(CCc1cn(Cc2ccc(Cl)cc2)nn1)Nc1nnc(CCCCc2nnc(NC(=O)Cc3ccccc3)s2)s1`?
Answer: IC50 [1]: 1250 nM; IC50 [2]: 1370 nM; IC50 (MDA-MB-436): 1140 nM; IC50 (HCT-116): 3410 nM

Question: For `O=C(CCc1cn(Cc2ccc(C(F)(F)F)cc2)nn1)Nc1ccc(CCCCc2nnc(NC(=O)Cc3ccccn3)s2)nn1`, which IC50 [1] is on record?
Answer: The IC50 was 44 nM.

Question: And the IC50 [2]?
Answer: Its IC50 is 73 nM.

Question: What about the IC50 (MDA-MB-436) of the same compound?
Answer: Its IC50 is 210 nM.

Question: What about the IC50 (HCT-116) of the same compound?
Answer: The IC50 was 180 nM.

Question: With `O=C(CCc1cn(Cc2ccc(F)cc2)nn1)Nc1nnc(CCCCc2nnc(NC(=O)Cc3ccccc3)s2)s1` as the compound, how does the IC50 [1] read?
Answer: Its IC50 is 1110 nM.

Question: And the IC50 [2]?
Answer: The IC50 was 1220 nM.

Question: And the IC50 (MDA-MB-436)?
Answer: Its IC50 is 350 nM.

Question: And the IC50 (HCT-116)?
Answer: Its IC50 is 1090 nM.

Question: Which IC50 [1] does the source give for `O=C(CCc1cn(Cc2ccc(Br)cc2)nn1)Nc1nnc(CCCCc2nnc(NC(=O)Cc3ccccc3)s2)s1` here?
Answer: Its IC50 is 980 nM.

Question: And the IC50 [2]?
Answer: The IC50 was 1080 nM.

Question: And the IC50 (MDA-MB-436)?
Answer: The IC50 was 4060 nM.

Question: What about the IC50 (HCT-116) of the same compound?
Answer: Its IC50 is 1850 nM.

Question: With `Cc1ccc(Cn2cc(CCC(=O)Nc3nnc(CCCCc4nnc(NC(=O)Cc5ccccc5)s4)s3)nn2)cc1` as the compound, how does the IC50 [1] read?
Answer: Its IC50 is 420 nM.

Question: And the IC50 [2]?
Answer: Its IC50 is 560 nM.

Question: And the IC50 (MDA-MB-436)?
Answer: Its IC50 is 1790 nM.

Question: What about the IC50 (HCT-116) of the same compound?
Answer: Its IC50 is 1570 nM.

Question: For `COc1ccc(Cn2cc(CCC(=O)Nc3ccc(CCCCc4nnc(NC(=O)Cc5ccccn5)s4)nn3)nn2)cc1`, which IC50 [1] is on record?
Answer: The IC50 was 150 nM.

Question: What about the IC50 [2] of the same compound?
Answer: The IC50 was 190 nM.

Question: What about the IC50 (MDA-MB-436) of the same compound?
Answer: Its IC50 is 630 nM.

Question: What about the IC50 (HCT-116) of the same compound?
Answer: Its IC50 is 230 nM.

Question: For `Cc1cccc(C)c1Cn1cc(CCC(=O)Nc2nnc(CCCCc3nnc(NC(=O)Cc4ccccc4)s3)s2)nn1`, which IC50 [1] is on record?
Answer: Its IC50 is 520 nM.

Question: And the IC50 [2]?
Answer: The IC50 was 780 nM.

Question: And the IC50 (MDA-MB-436)?
Answer: The IC50 was 760 nM.

Question: What about the IC50 (HCT-116) of the same compound?
Answer: Its IC50 is 740 nM.

Question: For `COc1ccc(Cn2cc(CCC(=O)Nc3nnc(CCCCc4nnc(NC(=O)Cc5ccccc5)s4)s3)nn2)cc1OC`, which IC50 [1] is on record?
Answer: Its IC50 is 500 nM.

Question: And the IC50 [2]?
Answer: Its IC50 is 850 nM.

Question: And the IC50 (MDA-MB-436)?
Answer: The IC50 was 800 nM.

Question: What about the IC50 (HCT-116) of the same compound?
Answer: The IC50 was 450 nM.

Question: Which IC50 [1] does the source give for `Cc1cccc(C)c1Cn1cc(CCC(=O)Nc2ccc(CCCCc3nnc(NC(=O)Cc4ccccn4)s3)nn2)nn1` here?
Answer: Its IC50 is 320 nM.

Question: What about the IC50 [2] of the same compound?
Answer: The IC50 was 460 nM.

Question: What about the IC50 (MDA-MB-436) of the same compound?
Answer: The IC50 was 340 nM.

Question: What about the IC50 (HCT-116) of the same compound?
Answer: Its IC50 is 270 nM.

Reference: ChEMBL document CHEMBL4334507, “Development and Characterization of a Fluorescent Probe for GLS1 and the Application for High-Throughput Screening of Allosteric Inhibitors” (J Med Chem, 2019)
